The source of these data is patent US12371432B2, “Haloallylamine compounds and application thereof” (TransThera Sciences (Nanjing), Inc., priority 2019, dated 2025).

Structures can show the parent of a compound that is named as a salt.

In assay [1] the target is T1, rhAOC1 (Homo sapiens, UniProt P19801).
T1 construct: purchased R&D
T1 sequence (P19801 20-751): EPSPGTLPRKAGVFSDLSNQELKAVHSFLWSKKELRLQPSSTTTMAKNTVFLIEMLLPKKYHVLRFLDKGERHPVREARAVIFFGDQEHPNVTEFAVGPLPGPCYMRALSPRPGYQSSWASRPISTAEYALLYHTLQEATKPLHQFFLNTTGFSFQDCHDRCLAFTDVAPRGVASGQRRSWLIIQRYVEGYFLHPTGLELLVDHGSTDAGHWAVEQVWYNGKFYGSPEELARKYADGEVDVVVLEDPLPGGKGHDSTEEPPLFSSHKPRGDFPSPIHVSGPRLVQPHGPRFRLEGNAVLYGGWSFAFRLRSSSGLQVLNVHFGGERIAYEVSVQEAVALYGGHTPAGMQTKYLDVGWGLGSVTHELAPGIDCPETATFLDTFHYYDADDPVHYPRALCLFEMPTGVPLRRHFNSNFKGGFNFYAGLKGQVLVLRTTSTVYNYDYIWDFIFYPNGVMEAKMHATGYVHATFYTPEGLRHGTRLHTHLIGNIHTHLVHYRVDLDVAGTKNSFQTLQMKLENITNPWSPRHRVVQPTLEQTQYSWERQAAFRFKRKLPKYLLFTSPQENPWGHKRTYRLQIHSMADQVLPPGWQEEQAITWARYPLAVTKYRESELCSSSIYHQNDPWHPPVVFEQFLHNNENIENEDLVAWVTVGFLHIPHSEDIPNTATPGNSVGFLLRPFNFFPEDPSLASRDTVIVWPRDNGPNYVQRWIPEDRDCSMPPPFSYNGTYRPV
The assay can be described thus: Selectivity against rhAOC1 enzyme (Biological Example 2). The following applies: Table 2; histamine substrate, Amplex Red/HRP. It counts as biochemical. The method, then:
2. Selectivity of Compounds Against rhAOC1 Enzyme
(§1) (1) Instrument, Consumable and Reagent
Microplate reader (Perkin Elmer, Nivo 5S), black unclear-bottom 96-well plate (Corning) and rhAOC1 (R&D)
(§2) (2) Preparation of Concentration Gradient Compound Solutions
An appropriate amount of the compound to be tested was taken, dissolved in DMSO to 10 mM and then stored. Before the study, an appropriate amount of mother liquor of the 10 mM compound to be tested was taken and gradiently diluted 3-fold with DMSO, 10 concentration gradients in total. Each concentration gradient was then diluted 10-fold with 0.1 M of PBS.
(§3) (3) Preparation of Enzyme Solutions
An appropriate amount of rhAOC1 mother liquor with a concentration of 0.441 mg/mL was taken and diluted with an appropriate amount of 50 mM HEPES buffer solution to obtain enzyme solutions of 4× concentrations.
(§4) (4) Preparation of Substrate Mixtures of 2× Concentrations
An appropriate amount of histamine was weighed and dissolved with 50 mM of HEPES buffer solution to obtain 20 mM of histamine solution. The histamine solution was added with 2 mM of Amplex Red mother liquor and 500 U/mL of HRP mother liquor and diluted with 50 mM of HEPES buffer solution to obtain substrate mixtures of 2× concentrations.
10 μL compound solutions of different concentrations, 25 μL rhAOC1 enzyme solutions of 4× concentrations and 15 μL of 50 mM HEPES buffer solution were first added into a 96-well plate, shaken to be mixed uniformly and then incubated at 37° C. for 30 min. 50 μL substrate mixtures of 2× concentrations were then added into each well, and the microplate reader was immediately used to detect fluorescence intensity of each well with 580 nm (20 nm) exciting light and 620 nm (10 nm) emission light for 5 min each time, 30 min in total. The inhibition rate was calculated according to the following formula: V (RFU/min)=(Ft (RFU)−F0 (RFU))/(time(min)) Inhibition rate (%)=100%−Vcmpd (RFU/min)/Vmax (RFU/min)×100%
V: fluorescence change rate; Ft: fluorescence reading at time point t; F0: initial fluorescence reading; Time: duration t; Vcmpd: fluorescence change rate of tested compound; Vmax: Max hole fluorescence change rate.
(6) Fitting of Dose-Response Curve
(§5) With the log value of concentration as the X axis and the percent inhibition rate as the Y axis, the log (inhibitor) vs. response-variable slope of analysis software GraphPad Prism 5 was used to fit a dose-response curve, thus obtaining the IC50 value of activity of each compound against the enzyme.

Assay [2] deals with T2, MAO-B (Homo sapiens, UniProt P27338).
T2 construct: purchased Active Motif
T2 sequence (P27338 1-520): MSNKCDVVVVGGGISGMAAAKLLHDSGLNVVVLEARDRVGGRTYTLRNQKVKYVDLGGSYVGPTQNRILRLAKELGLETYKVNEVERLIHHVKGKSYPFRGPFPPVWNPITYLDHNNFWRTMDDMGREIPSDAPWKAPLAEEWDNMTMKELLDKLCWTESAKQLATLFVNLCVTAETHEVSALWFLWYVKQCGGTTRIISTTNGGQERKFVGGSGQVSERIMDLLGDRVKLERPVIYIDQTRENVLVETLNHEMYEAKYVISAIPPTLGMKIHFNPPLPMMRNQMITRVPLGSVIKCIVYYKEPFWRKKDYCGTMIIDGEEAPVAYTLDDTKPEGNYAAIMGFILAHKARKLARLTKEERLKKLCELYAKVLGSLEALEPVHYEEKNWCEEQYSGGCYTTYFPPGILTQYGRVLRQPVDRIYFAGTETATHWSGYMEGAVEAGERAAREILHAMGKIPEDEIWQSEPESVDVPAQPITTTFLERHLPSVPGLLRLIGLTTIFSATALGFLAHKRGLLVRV
Put plainly: Selectivity against MAO-B enzyme (MAO-Glo). It counts as biochemical. Here is the method: as §1
Microplate reader (Perkin Elmer, EnVision), 384-well plate (Perkin Elmer), centrifuge (Eppendorf), MAO-Glo™ (Promega), MAO-A (Active Motif) and MAO-B (Active Motif).
as §2
An appropriate amount of the compound to be tested was taken, dissolved in DMSO to 10 mM and then stored. The solution was then gradiently diluted 4-fold with DMSO, 6 concentration gradients in total.
as §3
MAO-A/B mother liquor was diluted with the experimental buffer for MAO-A/B to obtain enzyme solutions of 2× concentrations.
as §4
The mother liquor of MAO-A/B substrate mixture was diluted with the experimental buffer for MAO-A/B to obtain substrate mixtures of 2× concentrations.
200 nL compound solutions or solvents of different concentrations and 10 μL MAO-A/B enzyme solutions of 2× concentrations were added into a 384-well plate, centrifuged at 1,000 rpm for 60 s, shaken to be mixed uniformly and then incubated at room temperature for 15 min. 10 μL substrate mixtures of 2× concentrations were then added into each well, and reaction was initiated. The 384-well plate was centrifuged at 1,000 rpm for 60 s, shaken for a uniform mixing and then incubated at room temperature for 60 min. 20 μL of test stop solution was added to stop reaction. Centrifugation was performed at 1,000 rpm for 60 s, and shaking was performed for uniform mixing. After 30 min of standing, the microplate reader was used to perform reading.
The inhibition rate was calculated according to the following formula: Inhibition rate (%)=(Signal_Max-Signal_sample)/(Signal_Max-Signal_min)×100 (6) Fitting of Dose-Response Curve
as §5

On to `Cc1c2c(cn1C/C(=C/F)CN)C(=O)N(C1CC1)CC2` [Compound A35 hydrochloride, (E)-2-(2-(aminomethyl)-3-fluoroallyl)-5-cyclopropyl-1-methyl-2,5,6,7-tetrahydro-4H-pyrrolo[3,4-c]pyridin-4-one], for which the values for the IC50 in assay [1] and in assay [2] were 7.03 µM and 92.7 µM, respectively. With `NC/C(=C\F)Cn1c(Br)c2c(c1Br)C(=O)N(C1CC1)CC2` [Compound A33 hydrochloride, (E)-2-(2-(aminomethyl)-3-fluoroallyl)-1,3-dibromo-5-cyclopropyl-2,5,6,7-tetrahydro-4H-pyrrolo[3,4-c]pyridin-4-one], the IC50 in assay [1] and in assay [2] was more than 100 µM throughout. Take `CCN1CCc2nn(C/C(=C/F)CN)cc2C1=O` [Compound A6 hydrochloride, (E)-2-(2-(aminomethyl)-3-fluoroallyl)-5-ethyl-2,5,6,7-tetrahydro-4H-pyrazolo[4,3-c]pyridin-4-one]: the values for the IC50 in assay [1] and in assay [2] were 8.95 µM and more than 100 µM, respectively. On to `CCN1CCc2cn(C/C(=C/F)CN)cc2C1=O` [Compound A25, (E)-2-(2-(aminomethyl)-3-fluoroallyl)-5-ethyl-2,5,6,7-tetrahydro-4H-pyrrolo[3,4-c]pyridin-4-one], for which the figures for the 50% inhibitory concentration (IC50) in assay [1] and in assay [2] were 11.5 µM and more than 100 µM, respectively.

Turning to `CNC(=O)c1cnn(C/C(=C/F)CN)c1` [Compound B1, (E)-1-(2-(aminomethyl)-3-fluoroallyl)-N-methyl-1H-pyrazole-4-carboxamide], the concentration for half-maximal inhibition (IC50) (usually the concentration that gives 50% inhibition) in assay [1] was 3.18 µM; in assay [2], more than 100 µM. With `NC/C(=C\F)Cn1cc2c(c1)C(=O)N(C1CC1)CC2` [Compound A22, (E)-2-(2-(aminomethyl)-3-fluoroallyl)-5-cyclopropyl-2,5,6,7-tetrahydro-4H-pyrrolo[3,4-c]pyridin-4-one], the results for the IC50 in assay [1] and in assay [2] were 14.8 µM and more than 100 µM, respectively.

Regarding `Cl.NC/C(=C\F)Cn1cc2c(c1Cl)CCN(C1CC1)C2=O` [Compound A42 hydrochloride, (E)-2-(2-(aminomethyl)-3-fluoroallyl)-1-chloro-5-cyclopropyl-2,5,6,7-tetrahydro-4H-pyrrolo[3,4-c]pyridin-4-one], the IC50 in assay [1] is 28.9 µM; in assay [2], more than 100 µM. The matching figures for `CC(C)(C)N1CCc2nn(C/C(=C/F)CN)cc2C1=O` [Compound A7 hydrochloride, (E)-2-(2-(aminomethyl)-3-fluoroallyl)-5-tert-butyl-2,5,6,7-tetrahydro-4H-pyrazolo[4,3-c]pyridin-4-one]: 50 µM and more than 100 µM. Consider `Cl.NC/C(=C\F)Cn1cc2c(c1Br)CCN(C1CC1)C2=O` [Compound A32 hydrochloride, (E)-2-(2-(aminomethyl)-3-fluoroallyl)-1-bromo-5-cyclopropyl-2,5,6,7-tetrahydro-4H-pyrrolo[3,4-c]pyridin-4-one], for which the IC50 in assay [1] was 23.6 µM; in assay [2], more than 100 µM. As to `CCn1ccc2c(cnn2C/C(=C/F)CN)c1=O` [Compound A29 hydrochloride, (E)-1-(2-(aminomethyl)-3-fluoroallyl)-5-ethyl-1,5-dihydro-4H-pyrazolo[4,3-c]pyridin-4-one], the results for the IC50 in assay [1] and in assay [2] were 0.674 µM and more than 100 µM, respectively.

For `NC/C(=C\F)Cn1cc2c(=O)n(C3CC3)ccc2n1` [Compound A41, (E)-2-(2-(aminomethyl)-3-fluoroallyl)-5-cyclopropyl-2,5-dihydro-4H-pyrazolo[4,3-c]pyridin-4-one], the IC50 in assay [1] is 9.65 µM; in assay [2] it was more than 100 µM.

`NC/C(=C\F)Cn1ncc2c1CCN(C1CC1)C2=O` [Compound A2 hydrochloride, (E)-1-(2-(aminomethyl)-3-fluoroallyl)-5-cyclopropyl-1,5,6,7-tetrahydro-4H-pyrazolo[4,3-c]pyridin-4-one] yielded an IC50 in assay [2] of more than 100 µM. On to `CCn1ccc2nn(C/C(=C/F)CN)cc2c1=O` [Compound A28 hydrochloride, (E)-2-(2-(aminomethyl)-3-fluoroallyl)-5-ethyl-2,5-dihydro-4H-pyrazolo[4,3-c]pyridin-4-one], for which the IC50 in assay [1] was 4.06 µM; in assay [2], more than 100 µM.
